#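 Exposure lasted 48 hours, with cells grown in 96-well plates and compounds tested at five concentrations. At the TGI there is no net growth.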
# What was measured:
# Test in all cases: growth of human tumour cells (NCI), 48 h
# 786-0 renal = tested on: 786-0 renal
# A498 renal = tested on: A498 renal
# A549 NSCLC = tested on: A549 NSCLC
# ACHN renal = tested on: ACHN renal
# CAKI-1 renal = tested on: CAKI-1 renal
# CCRF-CEM leukemia = tested on: CCRF-CEM leukemia
# COLO 205 colon = tested on: COLO 205 colon
# DU-145 prostate = tested on: DU-145 prostate
# EKVX NSCLC = tested on: EKVX NSCLC
# HCC-2998 colon = tested on: HCC-2998 colon
# HCT-116 colon = tested on: HCT-116 colon
# HCT-15 colon = tested on: HCT-15 colon
# HL-60(TB) leukemia = tested on: HL-60(TB) leukemia
# HOP-62 NSCLC = tested on: HOP-62 NSCLC
# HS 578T breast = tested on: HS 578T breast
# HT29 colon = tested on: HT29 colon
# IGROV1 ovarian = tested on: IGROV1 ovarian
# K-562 leukemia = tested on: K-562 leukemia
# KM12 colon = tested on: KM12 colon
# LOX IMVI melanoma = tested on: LOX IMVI melanoma
# M14 melanoma = tested on: M14 melanoma
# MALME-3M melanoma = tested on: MALME-3M melanoma
# MCF7 breast = tested on: MCF7 breast
# MDA-MB-231 breast = tested on: MDA-MB-231 breast
# MDA-MB-435 = tested on: MDA-MB-435
# MDA-N = tested on: MDA-N
# NCI-H226 lung = tested on: NCI-H226 lung
# NCI-H23 lung = tested on: NCI-H23 lung
# NCI-H460 lung = tested on: NCI-H460 lung
# NCI-H522 lung = tested on: NCI-H522 lung
# NCI/ADR-RES ovarian = tested on: NCI/ADR-RES ovarian
# OVCAR-3 ovarian = tested on: OVCAR-3 ovarian
# OVCAR-4 ovarian = tested on: OVCAR-4 ovarian
# OVCAR-5 ovarian = tested on: OVCAR-5 ovarian
# OVCAR-8 ovarian = tested on: OVCAR-8 ovarian
# PC-3 prostate = tested on: PC-3 prostate
# RPMI-8226 leukemia = tested on: RPMI-8226 leukemia
# RXF 393 renal = tested on: RXF 393 renal
# SF-268 CNS = tested on: SF-268 CNS
# SF-295 CNS = tested on: SF-295 CNS
# SF-539 CNS = tested on: SF-539 CNS
# SK-MEL-2 melanoma = tested on: SK-MEL-2 melanoma
# SK-MEL-28 melanoma = tested on: SK-MEL-28 melanoma
# SK-MEL-5 melanoma = tested on: SK-MEL-5 melanoma
# SK-OV-3 ovarian = tested on: SK-OV-3 ovarian
# SN12C renal = tested on: SN12C renal
# SNB-19 CNS = tested on: SNB-19 CNS
# SW-620 colon = tested on: SW-620 colon
# T-47D breast = tested on: T-47D breast
# TK-10 renal = tested on: TK-10 renal
# U251 CNS = tested on: U251 CNS
# UACC-257 melanoma = tested on: UACC-257 melanoma
# UACC-62 melanoma = tested on: UACC-62 melanoma
# UO-31 renal = tested on: UO-31 renal
# BT-549 breast = tested on: BT-549 breast
# HOP-92 NSCLC = tested on: HOP-92 NSCLC
# MOLT-4 leukemia = tested on: MOLT-4 leukemia
# SNB-75 CNS = tested on: SNB-75 CNS
# SR leukemia = tested on: SR leukemia
smiles,measurement,setting,value
Cc1cc(=O)[nH]c(-n2[nH]c(C)c(CCO)c2=O)n1,TGI,786-0 renal,> 100 µM
same,TGI,A498 renal,> 100 µM
same,TGI,A549 NSCLC,> 100 µM
same,TGI,ACHN renal,> 100 µM
same,TGI,CAKI-1 renal,> 100 µM
same,TGI,CCRF-CEM leukemia,> 100 µM
same,TGI,COLO 205 colon,> 100 µM
same,TGI,DU-145 prostate,> 100 µM
same,TGI,EKVX NSCLC,> 100 µM
same,TGI,HCC-2998 colon,> 100 µM
same,TGI,HCT-116 colon,> 100 µM
same,TGI,HCT-15 colon,> 100 µM
same,TGI,HL-60(TB) leukemia,> 100 µM
same,TGI,HOP-62 NSCLC,> 100 µM
same,TGI,HS 578T breast,> 100 µM
same,TGI,HT29 colon,> 100 µM
same,TGI,IGROV1 ovarian,> 100 µM
same,TGI,K-562 leukemia,> 100 µM
same,TGI,KM12 colon,> 100 µM
same,TGI,LOX IMVI melanoma,> 100 µM
same,TGI,M14 melanoma,> 100 µM
same,TGI,MALME-3M melanoma,> 100 µM
same,TGI,MCF7 breast,> 100 µM
same,TGI,MDA-MB-231 breast,> 100 µM
same,TGI,MDA-MB-435,> 100 µM
same,TGI,MDA-N,> 100 µM
same,TGI,NCI-H226 lung,> 100 µM
same,TGI,NCI-H23 lung,> 100 µM
same,TGI,NCI-H460 lung,> 100 µM
same,TGI,NCI-H522 lung,> 100 µM
same,TGI,NCI/ADR-RES ovarian,> 100 µM
same,TGI,OVCAR-3 ovarian,> 100 µM
same,TGI,OVCAR-4 ovarian,> 100 µM
same,TGI,OVCAR-5 ovarian,> 100 µM
same,TGI,OVCAR-8 ovarian,> 100 µM
same,TGI,PC-3 prostate,> 100 µM
same,TGI,RPMI-8226 leukemia,> 100 µM
same,TGI,RXF 393 renal,> 100 µM
same,TGI,SF-268 CNS,> 100 µM
same,TGI,SF-295 CNS,> 100 µM
same,TGI,SF-539 CNS,> 100 µM
same,TGI,SK-MEL-2 melanoma,> 100 µM
same,TGI,SK-MEL-28 melanoma,> 100 µM
same,TGI,SK-MEL-5 melanoma,> 100 µM
same,TGI,SK-OV-3 ovarian,> 100 µM
same,TGI,SN12C renal,> 100 µM
same,TGI,SNB-19 CNS,> 100 µM
same,TGI,SW-620 colon,> 100 µM
same,TGI,T-47D breast,> 100 µM
same,TGI,TK-10 renal,> 100 µM
same,TGI,U251 CNS,> 100 µM
same,TGI,UACC-257 melanoma,> 100 µM
same,TGI,UACC-62 melanoma,> 100 µM
same,TGI,UO-31 renal,> 100 µM
CC(C)OC(=O)c1ccc(NCc2cc(O)ccc2O)cc1Cl,TGI,786-0 renal,10.8 µM
same,TGI,A498 renal,> 75.9 µM
same,TGI,A549 NSCLC,> 76.7 µM
same,TGI,ACHN renal,7.83 µM
same,TGI,BT-549 breast,1570 nM
same,TGI,CAKI-1 renal,3.02 µM
same,TGI,COLO 205 colon,9.08 µM
same,TGI,DU-145 prostate,26.4 µM
same,TGI,EKVX NSCLC,25.5 µM
same,TGI,HCC-2998 colon,17.3 µM
same,TGI,HCT-116 colon,52.5 µM
same,TGI,HCT-15 colon,3.95 µM
same,TGI,HOP-62 NSCLC,> 64.5 µM
same,TGI,HOP-92 NSCLC,18 µM
same,TGI,HS 578T breast,> 100 µM
same,TGI,HT29 colon,> 93 µM
same,TGI,IGROV1 ovarian,14.7 µM
same,TGI,KM12 colon,> 38.1 µM
same,TGI,LOX IMVI melanoma,> 100 µM
same,TGI,M14 melanoma,> 100 µM
same,TGI,MCF7 breast,> 45.2 µM
same,TGI,MDA-MB-231 breast,> 54 µM
same,TGI,MDA-MB-435,23.3 µM
same,TGI,MDA-N,22.6 µM
same,TGI,MOLT-4 leukemia,8.97 µM
same,TGI,NCI-H226 lung,> 49.9 µM
same,TGI,NCI-H23 lung,28.6 µM
same,TGI,NCI-H460 lung,23.7 µM
same,TGI,NCI/ADR-RES ovarian,> 100 µM
same,TGI,OVCAR-3 ovarian,> 42.2 µM
same,TGI,OVCAR-4 ovarian,21.9 µM
same,TGI,OVCAR-5 ovarian,26.6 µM
same,TGI,OVCAR-8 ovarian,> 70.1 µM
same,TGI,PC-3 prostate,12.5 µM
same,TGI,RXF 393 renal,13.1 µM
same,TGI,SF-268 CNS,> 66.4 µM
same,TGI,SF-295 CNS,34.6 µM
same,TGI,SF-539 CNS,6.07 µM
same,TGI,SK-MEL-2 melanoma,> 55 µM
same,TGI,SK-MEL-28 melanoma,38.6 µM
same,TGI,SK-MEL-5 melanoma,11.1 µM
same,TGI,SK-OV-3 ovarian,49.2 µM
same,TGI,SN12C renal,32.2 µM
same,TGI,SNB-19 CNS,> 22.2 µM
same,TGI,SNB-75 CNS,31.1 µM
same,TGI,SR leukemia,8.6 µM
same,TGI,SW-620 colon,> 62.5 µM
same,TGI,TK-10 renal,20.2 µM
same,TGI,U251 CNS,24.6 µM
same,TGI,UACC-257 melanoma,37.1 µM
same,TGI,UACC-62 melanoma,18.6 µM
same,TGI,UO-31 renal,2.38 µM
CSc1ccc(C(=C=C=C(c2ccc(SC)s2)c2ccc(SC)s2)c2ccc(SC)s2)s1,TGI,A498 renal,> 10 µM
same,TGI,A549 NSCLC,> 10 µM
same,TGI,ACHN renal,> 10 µM
same,TGI,CAKI-1 renal,> 10 µM
same,TGI,COLO 205 colon,> 10 µM
same,TGI,DU-145 prostate,> 10 µM
same,TGI,EKVX NSCLC,> 10 µM
same,TGI,HCT-116 colon,> 10 µM
same,TGI,HCT-15 colon,> 10 µM
same,TGI,HOP-92 NSCLC,> 10 µM
same,TGI,HT29 colon,> 10 µM
same,TGI,IGROV1 ovarian,> 10 µM
same,TGI,KM12 colon,> 10 µM
same,TGI,M14 melanoma,> 10 µM
same,TGI,MDA-MB-231 breast,> 10 µM
same,TGI,MDA-MB-435,> 10 µM
same,TGI,MDA-N,> 10 µM
same,TGI,NCI-H226 lung,> 10 µM
same,TGI,NCI-H23 lung,> 10 µM
same,TGI,NCI/ADR-RES ovarian,> 10 µM
same,TGI,OVCAR-3 ovarian,> 10 µM
same,TGI,OVCAR-4 ovarian,> 10 µM
same,TGI,OVCAR-5 ovarian,> 10 µM
same,TGI,OVCAR-8 ovarian,> 10 µM
same,TGI,PC-3 prostate,> 10 µM
same,TGI,RXF 393 renal,> 10 µM
same,TGI,SF-268 CNS,> 10 µM
same,TGI,SF-295 CNS,> 10 µM
same,TGI,SF-539 CNS,> 10 µM
same,TGI,SK-MEL-28 melanoma,> 10 µM
same,TGI,SK-MEL-5 melanoma,> 10 µM
same,TGI,SN12C renal,> 10 µM
same,TGI,SNB-19 CNS,> 10 µM
same,TGI,SNB-75 CNS,> 10 µM
same,TGI,SW-620 colon,> 10 µM
same,TGI,TK-10 renal,> 10 µM
same,TGI,U251 CNS,> 10 µM
same,TGI,UO-31 renal,> 10 µM
O=c1c2c(oc3ccccc13)-c1ccccc1OC2,TGI,786-0 renal,64.2 µM
same,TGI,A549 NSCLC,> 100 µM
same,TGI,ACHN renal,> 100 µM
same,TGI,BT-549 breast,> 100000 nM
same,TGI,CAKI-1 renal,> 100 µM
same,TGI,CCRF-CEM leukemia,> 100 µM
same,TGI,DU-145 prostate,> 100 µM
same,TGI,EKVX NSCLC,> 100 µM
same,TGI,HCC-2998 colon,> 100 µM
same,TGI,HCT-116 colon,> 100 µM
same,TGI,HCT-15 colon,> 100 µM
same,TGI,HOP-62 NSCLC,> 100 µM
same,TGI,HT29 colon,> 100 µM
same,TGI,IGROV1 ovarian,> 100 µM
same,TGI,K-562 leukemia,> 100 µM
same,TGI,KM12 colon,> 100 µM
same,TGI,LOX IMVI melanoma,> 100 µM
same,TGI,M14 melanoma,> 100 µM
same,TGI,MALME-3M melanoma,> 100 µM
same,TGI,MCF7 breast,> 100 µM
same,TGI,MDA-MB-231 breast,47.4 µM
same,TGI,MDA-MB-435,> 100 µM
same,TGI,MDA-N,> 100 µM
same,TGI,MOLT-4 leukemia,> 100 µM
same,TGI,NCI-H226 lung,> 100 µM
same,TGI,NCI-H23 lung,> 100 µM
same,TGI,NCI-H522 lung,> 100 µM
same,TGI,NCI/ADR-RES ovarian,> 100 µM
same,TGI,OVCAR-3 ovarian,> 100 µM
same,TGI,OVCAR-5 ovarian,> 100 µM
same,TGI,OVCAR-8 ovarian,> 100 µM
same,TGI,PC-3 prostate,> 100 µM
same,TGI,RPMI-8226 leukemia,> 100 µM
same,TGI,SF-268 CNS,> 100 µM
same,TGI,SF-295 CNS,> 100 µM
same,TGI,SF-539 CNS,72.7 µM
same,TGI,SK-MEL-2 melanoma,> 100 µM
same,TGI,SK-MEL-5 melanoma,> 100 µM
same,TGI,SK-OV-3 ovarian,53.2 µM
same,TGI,SN12C renal,> 100 µM
same,TGI,SNB-75 CNS,50.7 µM
same,TGI,SW-620 colon,> 100 µM
same,TGI,T-47D breast,> 100 µM
same,TGI,TK-10 renal,> 100 µM
same,TGI,U251 CNS,> 100 µM
same,TGI,UACC-257 melanoma,> 100 µM
same,TGI,UACC-62 melanoma,> 100 µM
same,TGI,UO-31 renal,> 100 µM

# Reference: PubChem BioAssay (NCI)
